Where a name gives a salt, the structure may show the parent alone. Some results are limits rather than exact numbers.

One data set deals with MDA468. The data set is described as follows: In vitro cytotoxicity, 3-day MTT assay, MDA468. Type of data set: cell-based. Here is the method: (§1) In carrying out the following cytoloxicity assays, the method used corresponds substantially to the following example: • Cells were maintained in a continuous logarithmic culture in RMPI 1640 with L-glutamine medium, supplemented with 10% fetal calf serum, penicillin (100 IU/ml) and streptomycin (100 μg/ml). The cells were mildly trypsinized for passage and for use in assays. • On day one, 180 μl of trypsinized tumour cells (5×10^3 ml^−1) were placed in the wells of 96-well, flat-bottom microtiter plates. Columns 1 and 12 were filled with 300 μl medium to protect from evaporation. The plates were incubated for 24 hours at 37° C. and 5% CO2 in air to allow the cells to adhere and resume exponential growth prior to the addition of drugs. The compounds being tested were dissolved in DMSO and stored as 10 mM stock solutions at 4° C., protected from light. […] 20 μl of drug dilution was added to the other wells with the lowest concentration in column 3 and the highest concentration in column 11. The plates were incubated for 72 hours at 37° C. and 5% CO2 in air. Each compound was tested in triplicate. At the time of drug addition, a plate of untreated cells was read to provide an initial optical density value for use in the calculation of the IC50. • On day five the plates were read. 50 μl MTT (1 mg/ml^−1) was added per well and the plates incubated for a further 4 hours. The MTT is metaboliscd to form a blue formazan product. The MTT solution was aspirattd and 125 μl DMSO:glycine buffer (4:1) was added. The plates were placed on a plate shaker until the fornazan crystals had dissolved and absorbance was ready at 550 nm on a plate reader. • For each compound tested, a dose response curve was obtained and the IC50 statue (drug concentration at 50% inhibition of cell growth) was calculated.
(§2) (n=8) for a range of compounds in relation to MCF-7 and MDA 468 cell lines.
Background: Tetrazolium dyes change colour on reduction, which living cells bring about.

A further data set has as its system MCF-7. The data set is described as follows: In vitro cytotoxicity, 3-day MTT assay, MCF-7. Format: cell-based, human. Particulars: for IC50: 3-day MTT assay. How it is done: as §1, §2
For a further data set, the system named is COLO205 xenografts. The data set is described as follows: In vivo COLO205 xenograft study (FIG. 2).
The mark [1] stands for this setting: 72 h, asterisked values, IC50 concentration in μM.

With “7-Fluoro-2-(4′-imino-3′-methylphenyl)benzothiazole [Ih]”, the IC50 – broadly, the concentration that gives 50% inhibition – in the data set on MDA468 (n=8) turned out to be 0.0103 µM; in the data set with MCF-7 (n=8) it was 0.00239 µM.
`Cc1cc(-c2nc3c(F)cccc3s2)ccc1N` [Compound Ia]: the IC50 in the data set with MDA468 (n=8) was 0.00013 µM; with MCF-7 (n=8), less than 0.0001 µM.
As for `Cc1cc(-c2nc3cc(I)ccc3s2)ccc1N` [Compound Iak, 5-Iodo-2-(4′-amino-3′-methylphenyl)benzothiazole], the melting point (in general, the temperature, or range, at which the solid turns liquid) was 200 to 202 °C. In the data set on MDA468 (setting [1]), this compound returned a half-inhibitory concentration (IC50) of 80.9 µM. Moreover, in the data set with MCF-7 (Homo sapiens, MCF7, 72 h, n=8), the IC50 turned out to be 0.493 µM.
Regarding `Cc1cc(-c2nc3ccc(F)cc3s2)ccc1NC(=O)C(C)N` (stereo not shown) [Iac, 6-Fluoro-2-(4′-amino-3′-Methylphenyl)benzothiazole Alanyl Amide Hydrochloride Salt], the IC50 amounted to 0.297 µM in the data set on MDA468 (n=8) and 0.044 µM in the data set on MCF-7 (n=8).
Consider `Cc1cc(-c2nc3ccc(F)cc3s2)ccc1NC(=O)C(N)CCCCN` (stereo not shown) [Iae, 6-Fluoro-2-(4′-amino-3′-methylphenyl)benzothiazole Lysyl Amide Dihydrochloride Salt], for which the IC50 with MDA468 (n=8) turned out to be 0.328 µM; in the data set on MCF-7 (n=8) it was 0.147 µM.
`Cc1cc(-c2nc3cc(F)ccc3s2)ccc1NC(=O)C(C)N.Cl` (stereo not shown) [Iaf, 5-Fluoro-2-(4′-amino-3′-metbylphenyl)benzothiazole Alanyl Amide Hydrochloride Salt]: the figures for the IC50 in the data set on MDA468 (n=8) and in the data set with MCF-7 (n=8) were 0.0377 µM and 0.00589 µM, respectively. Further, in the data set with MCF-7 (compared with other prodrugs), the “IC50 in MCF-7 cells, fold lower than that of other amido prodrugs” value is given as greater than 5 fold.
In the case of `Cc1cc(-c2nc3cccc(I)c3s2)ccc1N` [Ial, 7-Iodo-2-(4′-amino-3′-methylphenyl)benzothiazole], the IC50 with MDA468 (72 h, n=8) was determined as 0.323 µM; in the data set on MCF-7 (Homo sapiens, MCF7, 72 h, n=8), 0.0283 µM.
In turn, `CC(=O)Nc1ccc(-c2nc3cc(F)ccc3s2)cc1C` [Iam, 5-Fluoro-2-(4′-acetamido-3′-methylphenyl)benzothiazole] yielded a melting point of 219 to 221 °C. For the same compound, the half-maximal inhibitory concentration (IC50) in the data set on MDA468 (setting [1]) was 5.84 µM. Moreover, in the data set with MCF-7 (Homo sapiens, MCF7, 72 h, asterisked values, IC50 concentration in μM), the IC50 is 7.64 µM.
`N#Cc1cc(-c2nc3cc(F)ccc3s2)ccc1N` [Ian, 5-Fluoro-2-(4′-amino-3′-cyanophenyl)benzothiazole] returned a melting point of 268 to 270 °C. In the data set on MDA468 (72 h, n=8), this compound displayed an IC50 of less than 0.0001 µM. For the same compound, the half-inhibitory concentration (IC50) with MCF-7 (Homo sapiens, MCF7, 72 h, n=8) was less than 0.0001 µM.
Turning to `Nc1ccc(-c2nc3cc(F)ccc3s2)cc1CO` [Iaq, 5-Fluoro-2-(4′-amino-3′-(hydroxymethyl)phenyl)benzothiazole], the melting point was 242 to 245 °C. Also, half-maximal inhibition in the data set on MDA468 (72 h, n=8) (IC50) required 0.00043 µM. In the data set with MCF-7 (Homo sapiens, MCF7, 72 h, n=8), this compound had an IC50 of less than 0.0001 µM.
Consider `Cc1cc(-c2nc3cc(F)c(F)cc3s2)ccc1NC(=O)C(C)N` (stereo not shown) [Iar, 5,6-Difluoro-2-(4′-amino-3′-methylphenyl)benzothiazole Alany Amide Hydrochloride Salt], for which the IC50 is 0.217 µM in the data set with MDA468 (n=8) and 0.0331 µM in the data set with MCF-7 (n=8).
For `Cc1cc(-c2nc3cc(F)c(F)cc3s2)ccc1NC(=O)C(N)CCCCN` (stereo not shown) [Ias, 5,6-Difluoro-2-(4′-amino-3′-methylphenyl)benzothiazole Lysyl Amide Dihydrochloride], the half-inhibitory concentration (IC50) amounted to 0.302 µM with MDA468 (n=8) and 0.0307 µM with MCF-7 (n=8).
For `Nc1ccc(-c2nc3c(F)cccc3s2)cc1` [Ic, 4-Fluoro2-(4-aminophenyl)benzothiazole], the IC50 in the data set with MDA468 (72 h, n=8) worked out at 0.0294 µM; in the data set on MCF-7 (Homo sapiens, MCF7, 72 h, n=8), 0.00854 µM.
For `Nc1ccc(-c2nc3ccc(F)cc3s2)cc1` [Id, 6-Fluoro2-(4′-aminophenyl)benzothiazole], the half-maximal inhibitory concentration (IC50) in the data set on MDA468 (72 h, n=8) is 0.0481 µM; with MCF-7 (Homo sapiens, MCF7, 72 h, n=8) it was less than 0.0001 µM.
Take `Cc1cc(-c2nc3c(F)c(F)ccc3s2)ccc1N` [Ie, 4,5-Difluoro-2-(4′-amino-3′-methylphenyl)benzothiazole]: the IC50 worked out at 0.00067 µM in the data set on MDA468 (72 h, n=8) and 0.00064 µM in the data set with MCF-7 (Homo sapiens, MCF7, 72 h, n=8).
In the case of `Cc1cc(-c2nc3c(F)cc(F)cc3s2)ccc1N` [If], the IC50 is 0.00535 µM in the data set on MDA468 (n=8) and less than 0.0001 µM with MCF-7 (n=8).
In the case of `Cc1cc(-c2nc3cc(F)cc(F)c3s2)ccc1N` [Ig, 5,7-Difluoro-2-(4′-amino3′-methylphenyl)benzothiazole], the IC50 with MDA468 (72 h, n=8) was 0.0044 µM; with MCF-7 (Homo sapiens, MCF7, 72 h, n=8), 0.0009 µM.
With `Cc1cc(-c2nc3cc(F)c(F)cc3s2)ccc1N` [Ii, 5,6-Difluoro-2-(4′-amino-3′-methylphenyl)benzothiazole], the IC50 is 0.00355 µM in the data set on MDA468 (72 h, n=8) and less than 0.0001 µM in the data set on MCF-7 (Homo sapiens, MCF7, 72 h, n=8).
Regarding `Nc1ccc(-c2nc3cc(F)ccc3s2)cc1` [Il, 5-Fluoro-2-(4′-aminophenyl)benzothiazole], the 50% inhibitory concentration (IC50) with MDA468 (72 h, n=8) was less than 0.0001 µM; in the data set on MCF-7 (Homo sapiens, MCF7, 72 h, n=8) it was less than 0.0001 µM.
Turning to `Nc1ccc(-c2nc3c(F)cccc3s2)cc1I` [Im, 4-Fluoro-2-(4′-amino-3′-iodophenyl)benzothiazole], the IC50 in the data set with MDA468 (72 h, n=8) was 0.00911 µM; in the data set with MCF-7 (Homo sapiens, MCF7, 72 h, n=8), 0.00788 µM.
For the compound `Nc1ccc(-c2nc3cc(F)ccc3s2)cc1I` [In, 5-Fluoro-2-(4′-amino-3′-iodophenyl)benzothiazole], the IC50 with MDA468 (72 h, n=8) is less than 0.0001 µM; in the data set with MCF-7 (Homo sapiens, MCF7, 72 h, n=8), less than 0.0001 µM.
In the case of `Nc1ccc(-c2nc3ccc(F)cc3s2)cc1I` [Io, 6-Fluoro-2-(4′-amino-3′-iodophenyl)benzothiazole], the IC50 is less than 0.0001 µM in the data set on MDA468 (72 h, n=8) and less than 0.0001 µM with MCF-7 (Homo sapiens, MCF7, 72 h, n=8).
As to `Nc1ccc(-c2nc3c(F)cccc3s2)cc1Cl` [Ip, 4-Fluoro-2-(4′-amino-3′-chlorophenyl)benzothiazole], the half-inhibitory concentration (IC50) in the data set on MDA468 (72 h, n=8) amounted to 0.00193 µM; in the data set on MCF-7 (Homo sapiens, MCF7, 72 h, n=8), 0.00095 µM.
For `Nc1ccc(-c2nc3cc(F)ccc3s2)cc1Cl` [Iq, 5-Fluoro-2-(4′-amino-3′-chlorophenyl)benzothiazole] the same measures were 0.0189 µM and 0.00709 µM.
As for `Nc1ccc(-c2nc3ccc(F)cc3s2)cc1Cl` [Ir, 6-Fluoro-2-(4′-amino3′chlorophenYl)bcnzothiazole], the results for the IC50 in the data set on MDA468 (n=8) and with MCF-7 (n=8) were 0.0117 µM and 0.00408 µM, respectively.
As to `Nc1ccc(-c2nc3c(F)cccc3s2)cc1Br` [Is, 4-Fluoro-2-(4′amino-3′-bromophenyl)benzothiazole], the IC50 was determined as 0.024 µM with MDA468 (72 h, n=8) and 0.0382 µM with MCF-7 (Homo sapiens, MCF7, 72 h, n=8).
`Nc1ccc(-c2nc3cc(F)ccc3s2)cc1Br` [It, 5-Fluoro-2-(4′-amino-3′-bromophenyl)benzothiazole]: the IC50 in the data set on MDA468 (72 h, n=8) was 0.0002 µM; in the data set on MCF-7 (Homo sapiens, MCF7, 72 h, n=8) it was less than 0.0001 µM.
As for `Nc1ccc(-c2nc3ccc(F)cc3s2)cc1Br` [Iu, 6-Fluoro2-(4′-amino-3′-bromophenyl)benzothiazole], the IC50 with MDA468 (72 h, n=8) was 0.0687 µM; in the data set on MCF-7 (Homo sapiens, MCF7, 72 h, n=8) it was 0.0455 µM.
As for `CC(N)C(=O)Nc1ccc(-c2nc3ccccc3s2)cc1.Cl` (stereo not shown) [Iv, 2-(4′-Aminophenyl)benzothiazole Alanyl Amide Hydrochloride Salt], the IC50 is 0.04 µM in the data set with MDA468 (n=8) and 0.06 µM in the data set on MCF-7 (n=8). In addition, the “tumour growth inhibition, COLO205 xenografts (FIG. 2)” value with COLO205 xenografts is “tumour growth inhibition observed”.

The record behind these values is US6858633B1, “Substituted 2-arylbenzazole compounds and their use as antitumour agents” (Cancer Research Technology Limited, priority 1999, dated 2005).
